Source: patent US8809358B2, “Use of IκB-kinase inhibitors in pain therapy” (Sanofi-Aventis Deutschland GmbH, priority 2002, dated 2014)

Test system: Zymosan-induced paw inflammation
Experiment: Zymosan-induced paw inflammation in the mouse: paw withdrawal time during thermal stimulation of the hind paw
Type: in vivo
Details: for Statistical difference as compared with the vehicle: thermal hyperalgesia AUC
Description: • Zymosan-induced paw inflammation in the mouse; • Parameter: paw withdrawal time during thermal stimulation of the hind paw. Experimental implementation: In short-term anesthesia using isoflurane, 25 μl of a suspension containing 50 mg of zymosan/ml were injected into the right hind paw of the experimental animal. The development of a hyperalgesia was then determined quantitatively as follows: Determining the Paw Withdrawal Time During Thermal Stimulation (Hargreave's Test; See Above). The experimental animal was placed in a transparent plastic chamber having a glass floor. As soon as the experimental animal was no longer moving, following the reconnaissance phase (about 5 min), an infrared light source was positioned directly below the hind paw to be stimulated and switched on. The lamp emitted focused infrared light of increasing intensity such that the skin temperature of the hind paw increased almost linearly. As soon as the animal withdrew the paw, the lamp switched itself off. The temperature of the paw at the time it is withdrawn has just become unpleasant for the animal; this is referred to as the thermal pain threshold. Shortly before the zymosan injection, and for from 7 to 14 days after the injection, the thermal pain threshold was determined once daily on the right hind paw and left hind paw. Subsequently, the integral of the area which was formed from the curves for the paw withdrawal times of the inflamed paw and the noninflamed paw (AUC, area between the curves, see tables 5 and 6) was determined as a measure of the hyperalgesia. The larger this value is, the more pronounced is the hyperalgesia, and the smaller the value is in animals which are being given the substance, the greater is the success of the therapy. […] A very high dose of paracetamol was likewise administered twice daily to another group of animals which was taken through the experiment in parallel. […] The scheme for zymosan injection and dosing was identical to that in the previously described study. The only difference was that this additional study ran for 14 days.

Q: With CNc1nccc(-c2cc3cc(C(=O)N[C@@H](CN(c4ccccc4)c4ccccc4)c4n[nH]c(=O)o4)ccc3[nH]2)n1 [Compound 13, N—[(S)-2-diphenylamino-1-(5-oxo-4,5-dihydro[1,3,4]oxadiazol-2-yl)ethyl]-2-(2-methylaminopyrimidin-4-yl)-1H-indole-5-carboxamide] as the molecule, how does the “activity in the test model” value (mouse, 7-day study) read?
A: very strong activity

Q: And the “reduction of thermal hyperalgesia compared with paracetamol” value (mouse, 7-day study)?
A: to a greater extent

Q: And the “AUC (thermal hyperalgesia), dose dependence” value (mouse, 7-day study, orally twice daily)?
A: decreased in a dose-dependent manner

Q: And the “thermal hyperalgesia, dose dependence” value (mouse, 14-day study)?
A: reduce thermal hyperalgesia in a dose-dependent manner

Q: What about the “effect on thermal hyperalgesia at the high dosage, compound 13 versus Celecoxib” value (mouse, 14-day study, high dosage) of the same molecule?
A: equally strong effects

Q: What about the “Statistical difference as compared with the vehicle” value (“Statistical difference” for short) (14 days, 25 mg/kg) of the same molecule?
A: yes

Q: And the “Statistical difference” value (seven days, 2.8 mg/kg orally twice daily)?
A: no

Q: What about the “Statistical difference” value (seven days, 25 mg/kg orally twice daily) of the same molecule?
A: yes

Q: What about the “Statistical difference” value (seven days, 75 mg/kg orally twice daily) of the same molecule?
A: yes
